Results reported in patent publication US8940333B2, “Amphiphilic block copolymers and nanoparticles comprising the same” (priority 2005, dated 2015).

Tests used:
[1] = system: macrophage culture (RAW 264.7); assay: In vitro stealth test: reactive oxygen species (DCFDA to DCF) in macrophage culture, flow cytometer; format: cell-based; details: RAW 264.7, 1 μm PMA, 24-hour activation (positive control)
[2] = system: erythrocyte; assay: Hemolysis test (ASTM F756); format: cell-based

| SMILES | mean fluorescent intensity of DCF [1] | Hemolytic grade [2] | Hemolytic index (%) [2] [%] |
| --- | --- | --- | --- |
| CCCCCCCCCCCCCC(=O)O[C@@H]1[C@@H](C)[C@@]2(O)[C@@H](C=C(CO)C[C@]3(O)C(=O)C(C)=C[C@@H]23)[C@@H]2C(C)(C)[C@]12OC(C)=O [PMA] | 20.13 | – | – |
| CC[C@@]1(O)C(=O)OCc2c1cc1n(c2=O)Cc2cc3ccccc3nc2-1 [Camptothecin] | – | slight hemolysis | 5.84 |
